Assay results as given in patent US5122448A, “Assay of anti-Epstein-Barr virus nuclear antigen antibodies with synthetic polypeptides” (Scripps Clinic and Research Foundation, priority 1990, dated 1992).
Like-named read-outs stand apart in the source and are kept apart here. Residues, ends and D or L forms follow the SMILES beside them.

Columns and labels:
[1] = target: human anti-EBNA antibodies; experiment: ELISA: inhibition of serum antibody binding to solid phase P62 by competing polypeptide in solution
Experimental: (§1) Anti-peptide antibody binding and inhibition studies were carried out by an enzyme-linked immunosorbent assay (ELISA) as described below.
(§2) Contact between the wells and antigen-containing solution was maintained for a predetermined time, typically 15 minutes, and at 20 degrees C., to form an antigen-coated solid phase. The solid and liquid phases were separated and the wells were washed three times with BBS.
(§3) Rabbit and human sera (body sample aliquots) were assayed for anti-polypeptide activity by adding 100 microliters of a serum diluted 1:20 in BBS per well to form a solid/liquid phase composition. Contact between the diluted sera and the antigen-coated solid phase was maintained for a predetermined time such as 1 hour, and at 20 degrees C., for an immunoreactant to form. The solid and liquid phases were separated, and the solid phase; i.e., antigen-coated, immunoreactant-containing wells, was then washed three times with BBS.

[2] = system: rabbit anti-polypeptide antibody to polypeptide P62; experiment: Competition ELISA with rabbit anti-polypeptide P62 antibody on solid phase P62; assay type: binding; conditions: antibody first incubated with competing polypeptide
Experimental: as §1, §2, §3

[3] = system: IgM and IgG antibodies to EBNA-1 and cellular proteins of Wi-L2 cells
Experimental: In an alternative procedure, the cellular protein-containing extracts were loaded onto one 13-cm-wide slot of a 7.5 percent acrylamide gel and electrophoresed. The contents of the electrophoresed gel were transferred to nitrocellulose as previously described [Billings et al., Proc. Natl. Acad. Sci. USA, 80:7104-7108 (1983); Rumpold et al., J. Immunol., 138:593-599 (1987); Rhodes et al., J. Exp. Med., 165:1026-1040 (1987)]. Sera were diluted 1:20 or 1:50 in a powdered milk (PM) buffer (3 percent powered milk in 0.05 M borate, 0.15 M NaCl, pH 8.3), and contacted with the strip for 1 hour at room temperature to immunoreact antibodies in the sera with the proteins.
128:593-599 (1987); Rhodes et al., in Herpesvirus, R. Rapp ed., Alan R. Liss, New York; p. […] 154:885-889 (1986); Geltosky et al., J. Clin. Lab Analysis, 1:153-162 (1987); and Rhodes et al., J. Exp. Med., 165:1026-1040 (1987)] and bands were detected by autoradiography as described before.
Synthetic peptide inhibitions were performed by diluting the sera 1:50 in PM and adding free peptide to a final concentration of 400 ug/ml to inhibit IgM antibody and 20 to 50 ug/ml to inhibit IgG antibody. This solution was maintained (incubated) overnight at 4 degrees C. and then used to blot as described above.

[4] = system: anti-EBNA antibodies (IgG, IgM, IgA)
Experimental: Additional assays utilized in these studies wherein IgG to IgM ratios were determined to assess the state of EBV-induced disease were carried out as described in Smith et al., J. Infect. Dis., 154:885-889 (1986) and Geltosky et al., J. Clin Lab Analysis, 1:153-162 (1987).
The solution was thereafter discarded and the plates were blocked with 300 ul of 10 percent normal goat serum in phosphate-buffered saline (PBS) at pH 7.3. After 90 minutes of maintenance (incubation) at 37 degrees C., the wells were emptied and dried for 60 minutes at 37 degrees C.
At this time, 200 ul of 10 percent goat serum in PBS were added to the wells. A volume of 10 ul of patient specimen serum was admixed to each goat serum-containing well to form a solid/liquid phase admixture. That admixture was maintained for a time period of one hour at room temperature to permit binding of any antibodies present to the solid support and form a solid phase-bound immunoreactant containing those antibodies.
After washing five times with 350 ul of 0.05% Tween-20 [polyoxyethylene (20) sorbitan monolaurate] in PBS to effect separation of the solid and liquid phases, a solution of 200 ul of horseradish peroxidase-(HRPO-) conjugated mouse monoclonal antibody to human IgG or IgM (Ortho Diagnostic Systems, Raritan, N.J.) was admixed to each well to form a second solid/liquid phase admixture. This second solid/liquid admixture was maintained for another one hour time period to permit the enzyme-linked antibodies to bind to any solid phase-bound antibodies formed in the first solid/liquid phase admixture.
After separation of the solid and liquid phases, and washing of the solid phase five times using the Tween-20/PBS solution, above, color was developed by admixture of o-phenylenediamine (OPD; 2 mg of a citrate-buffered tablet dissolved in 3 ml of water; Pitman-Moore, Washington Crossing, N.J.) and hydrogen peroxide. The resulting solution was maintained for 30 minutes at room temperature. The reaction was stopped by admixture of 50 ul of 2N HCl, and the absorbance was determined at 490 nanometers (nm).
positive control ratio =reference absorbance value/mean absorbance of positive control.
The positive control was assigned a reference absorbance value (O.D.) of 1.0. […] The absorbance value for the controls and for each test specimen were multiplied by the positive control ratio to achieve a standardized ELISA value. Cutoff values (mean OD+SD) have been previously described [Geltosky et al. J. Clin. Lab. Analysis, 1:153-162 (1987)]. […] Absorbance values less than 0.7 were considered to represent an acute infection due to EBV [Smith et al., J Infect Dis., 154:885-889 (1986)].

[5] = acute IM Patient 1, 1 days post onset
[6] = acute IM Patient 1, 29 days post onset
[7] = acute IM Patient 1, 95 days post onset
[8] = acute IM Patient 1, 184 days post onset
[9] = acute IM Patient 1, 373 days post onset
[10] = acute IM Patient 2, 17 days post onset
[11] = acute IM Patient 2, 28 days post onset
[12] = acute IM Patient 2, 68 days post onset
[13] = acute IM Patient 2, 194 days post onset
[14] = acute IM Patient 2, 404 days post onset
[15] = acute IM Patient 8, 8 days post onset
[16] = acute IM Patient 8, 38 days post onset
[17] = acute IM Patient 8, 109 days post onset
[18] = acute IM Patient 8, 404 days post onset
[19] = acute IM Patient 11, 2 days post onset
[20] = acute IM Patient 11, 23 days post onset
[21] = acute IM Patient 11, 372 days post onset
[22] = acute IM Patient 11, 1,519 days post onset

C[C@H](N)C(=O)NCC(=O)N[C@@H](C)C(=O)NCC(=O)NCC(=O)NCC(=O)N[C@@H](C)C(=O)NCC(=O)NCC(=O)N[C@@H](C)C(=O)NCC(=O)N[C@@H](C)C(=O)NCC(=O)NCC(=O)NCC(=O)N[C@@H](C)C(=O)NCC(=O)NCC(=O)N[C@@H](C)C(=O)NCC(=O)O [Polypeptide P62, H--Ala--Gly--Ala--Gly--Gly--Gly--Ala--Gly--Gly--Ala--Gly--Ala--Gly--Gly--Gly--Ala--Gly--Gly--Ala--Gly--OH] (H-AGAGGGAGGAGAGGGAGGAG-OH)
Concentration of Competing Polypeptides Providing 50% Inhibition of Antibody Binding to Peptide P62 ([1]; serum N6): 0.6 micrograms per milliliter
Concentration of Competing Polypeptides Providing 50% Inhibition of Antibody Binding to Peptide P62 ([1]; serum TJ): 0.05 micrograms per milliliter
Concentration of Competing Polypeptides Providing 50% Inhibition of Antibody Binding to Peptide P62 ([1]; serum VM): 0.3 micrograms per milliliter
Inhibition of binding of anti-polypeptide P62 to polypeptide P62 in the solid phase [2]: 98%
Inhibition of IgM antibody binding to protein bands ([3]; acute EBV-IM sera 1:50, 400 ug/ml peptide): inhibited IgM antibody binding to several protein bands
Inhibition of IgG binding to EBNA-1 band at 77 kD ([3]; convalescent and normal sera, 50 ug/ml peptide): inhibited by the peptide in all cases
Inhibition of IgM reactivities with 82-77 kD and 58 to 62 kD bands ([3]; patient four. 12 days after onset of CMV illness, 400 ug/ml peptide): inhibited
IgM anti-peptide P62 antibodies during acute phase of CMV disease ([4]; 10 patients with CMV-IM): All 10 patients showed a pronounced increase
Sera positive for NPC in IgA anti-P62 assay ([4]; 13 sera from NPC patients): 10 of 13
IgA level ([4]; Heterophil-Positive Sera marked with footnote 2 (samples 2 and 6)): > 0.300 OD 490
IgG OD 490 [4, 5]: 0.011 OD 490
IgM OD 490 [4, 5]: 0.189 OD 490
Ratio IgG/IgM [4, 5]: 0.058
IgG OD 490 [4, 6]: 0.023 OD 490
IgM OD 490 [4, 6]: 0.527 OD 490
Ratio IgG/IgM [4, 6]: 0.043
IgG OD 490 [4, 7]: 0.162 OD 490
IgM OD 490 [4, 7]: 0.329 OD 490
Ratio IgG/IgM [4, 7]: 0.492
IgG OD 490 [4, 8]: 0.552 OD 490
IgM OD 490 [4, 8]: 0.245 OD 490
Ratio IgG/IgM [4, 8]: 2.253
IgG OD 490 [4, 9]: 0.858 OD 490
IgM OD 490 [4, 9]: 0.152 OD 490
Ratio IgG/IgM [4, 9]: 5.644
IgG OD 490 [4, 10]: 0.125 OD 490
IgM OD 490 [4, 10]: 0.682 OD 490
Ratio IgG/IgM [4, 10]: 0.183
IgG OD 490 [4, 11]: 0.167 OD 490
IgM OD 490 [4, 11]: 0.674 OD 490
Ratio IgG/IgM [4, 11]: 0.247
IgG OD 490 [4, 12]: 0.112 OD 490
IgM OD 490 [4, 12]: 0.459 OD 490
Ratio IgG/IgM [4, 12]: 0.244
IgG OD 490 [4, 13]: 0.233 OD 490
IgM OD 490 [4, 13]: 0.596 OD 490
Ratio IgG/IgM [4, 13]: 0.390
IgG OD 490 [4, 14]: 0.674 OD 490
IgM OD 490 [4, 14]: 0.665 OD 490
Ratio IgG/IgM [4, 14]: 1.013
IgG OD 490 [4, 15]: 0.319 OD 490
IgM OD 490 [4, 15]: 1.046 OD 490
Ratio IgG/IgM [4, 15]: 0.305
IgG OD 490 [4, 16]: 0.165 OD 490
IgM OD 490 [4, 16]: 0.696 OD 490
Ratio IgG/IgM [4, 16]: 0.237
IgG OD 490 [4, 17]: 0.141 OD 490
IgM OD 490 [4, 17]: 0.603 OD 490
Ratio IgG/IgM [4, 17]: 0.234
IgG OD 490 [4, 18]: 1.304 OD 490
IgM OD 490 [4, 18]: 0.562 OD 490
Ratio IgG/IgM [4, 18]: 2.320
IgG OD 490 [4, 19]: 0.005 OD 490
IgM OD 490 [4, 19]: 0.055 OD 490
Ratio IgG/IgM [4, 19]: 0.091
IgG OD 490 [4, 20]: 0.016 OD 490
IgM OD 490 [4, 20]: 0.702 OD 490
Ratio IgG/IgM [4, 20]: 0.023
IgG OD 490 [4, 21]: 0.878 OD 490
IgM OD 490 [4, 21]: 0.643 OD 490
Ratio IgG/IgM [4, 21]: 1.365
IgG OD 490 [4, 22]: 1.079 OD 490
IgM OD 490 [4, 22]: 0.199 OD 490
Ratio IgG/IgM [4, 22]: 5.422
IgG/IgM ratio ([4]; patient five (EBV-IM), May 1985 specimen, late convalescent phase): exceeded 0.7
IgG/IgM ratio ([4]; patient one (CMV-IM), during the acute illness): 0.661
IgG/IgM ratio ([4]; patient one (CMV-IM), pre-illness samples): ~2
Patients scored positive in the EBNA P62 ELISA by the ratio analysis ([4]; ten patients with acute CMV-IM infection): eight of ten
